In series [1] the test system is Human oral epidermoid carcinoma KB cells. Nature of the series: Cell growth inhibition assay (methylene blue dye), KB cells. Format: cell-based. As to the method:
(§1) Anticancer activities of the aryl substituted sulfonamide compounds synthesized in the above examples were evaluated by testing their inhibitory effects on mammalian cancer cell growth.
(§2) Human oral epidermoid carcinoma KB cells, non small cell lung carcinoma H460 cells, colorectal carcinoma HT29 cells, and stomach carcinoma MKN45 cells were maintained in RPMI-1640 medium supplied with 5% fetal bovine serum. The cells were treated with the test compound at various concentrations for 72 h.

Series [2] relates to non small cell lung carcinoma H460 cells. Nature of the series: Cell growth inhibition assay (methylene blue dye), H460 cells. To be noted: Homo sapiens, NCI-H460, 72 h, read-out: Cell type (IC50 ± SD, nM) H460 (lung). The format is cell-based. As to the method:
as §1, §2

For series [3], the system named is stomach carcinoma MKN45 cells. Description: Cell growth inhibition assay (methylene blue dye), MKN45 cells. Format: cell-based. To be noted: Homo sapiens, MKN-45, 72 h, read-out: Cell type (IC50 ± SD, nM) MKN45 (stomach). On the procedure:
as §1, §2

For another series, the system named is KB-VIN10 cells. Description: Cell growth inhibition assay on multidrug resistant KB-VIN10 cells. Format: cell-based. Particulars: Homo sapiens. On the procedure: (§3) Cell in logarithmic phase were cultured at a density of 5000 cells/mL/well in a 24-well plate. KB-VIN10 cells were cultured in a medium free of test compound for 3 days prior to use. The cells were treated with the test compound at various concentrations for 72 h. The effect of the test compound on cell growth was evaluated using the methylene blue dye assay. […] KB-CPT100 and KB-CPT300 cells were generated by camptothecin-driven selection. […] (See Liou, J. P. et al J. Med. Chem. 2004, 47, 4247-4257 and Kuo, C. C. et al. Cancer Res. 2004, 64, 4621-4628.) Anticancer activities of the aryl substituted sulfonamide compounds synthesized in the above examples were evaluated by testing their inhibitory effects on these drug-resistant cell lines. Compound 24 was tested in this assay.

Series [4] deals with non-small-cell lung cancer A549 cells. Nature of the series: Cell growth inhibition assay, A549 cells. The format is cell-based. Particulars: Homo sapiens. On the procedure:
(§4) Human oral epidermoid carcinoma KB cells, non small cell lung carcinoma H460 cells, colorectal carcinoma HT29 cells, and stomach carcinoma MKN45 cells were maintained in RPMI-1640 medium supplied with 5% fetal bovine serum. The cells were treated with the test compound at various concentrations for 72 h. The effect of the test compound on cell growth was evaluated using a methylene blue dye assay similar to that described in Baguley et al., Anal Biochem, 1984, 139: 272-277. […] Compounds 16, 17, and 24 were tested on these three cell lines using methylene blue dye assay. ABT-751 was used as positive control (which was synthesized with the method described in Yoshino et al., J. Med. Chem. 1992, 35, 2496-2497; descriptions of ABT-751 can also be found in Koyanagi et al., Cancer Res. 1994, 54, 1702-1706; Yee et al., Cancer Res. 2005, 11, 6615-6624; and Mauer, et al., J. Thorac. Oncol. 2008, 3, 613-636).
(§5) Further, Compound 24 was tested on non-small-cell lung cancer A549 and H1299 cells, colorectal carcinoma HT29, and normal human umbilical vein endothelial cells (HUVECs).

Series [5] concerns non-small-cell lung cancer H1299 cells. Nature of the series: Cell growth inhibition assay, H1299 cells. The format is cell-based. To be noted: Homo sapiens, NCI-H1299. On the procedure: as §4, §5
Series [6] relates to colorectal carcinoma HT29 cells. Description: Cell growth inhibition assay, HT29 cells. The format is cell-based. To be noted: Homo sapiens, HT-29. On the procedure: as §4, §5
Series [7] deals with normal human umbilical vein endothelial cells (HUVECs). Nature of the series: Cell growth inhibition assay, normal HUVECs. The format is cell-based. To be noted: HUVEC. On the procedure:
as §4, §5

Another series has as its system KB-TAX50 cells. Nature of the series: Cell growth inhibition assay on drug-resistant KB-TAX50 cells. To be noted: Homo sapiens; KB-TAX50, Paclitaxel resistance. Format: cell-based. On the procedure:
as §3, with “dye assay. […] Compounds 16 and 24 were tested in this” for “dye”

The subject of a further series is KB-7D cells. Nature of the series: Cell growth inhibition assay on drug-resistant KB-7D cells. Particulars: Homo sapiens, KB7D, Etoposide resistance. The format is cell-based. On the procedure: as §3, with “dye assay. […] Compounds 16 and 24 were tested in this” for “dye”
A further series deals with KB-L30 cells. Nature of the series: Cell growth inhibition assay on drug-resistant KB-L30 cells. Format: cell-based. Particulars: Homo sapiens; KB-L30, BPR0L075 resistance. On the procedure: as §3, with “dye assay. […] Compounds 16 and 24 were tested in this” for “dye”
The subject of the next series is KB-CPT100 cells. Nature of the series: Cell growth inhibition assay on drug-resistant KB-CPT100 cells. The format is cell-based. Particulars: Homo sapiens, KBCPT100; KB-CPT100, Camptothecin resistance. On the procedure: as §3, with “dye assay. […] Compounds 16 and 24 were tested in this” for “dye”
The subject of the next series is KB-CPT300 cells. Nature of the series: Cell growth inhibition assay on drug-resistant KB-CPT300 cells. To be noted: Homo sapiens; KB-CPT300, Camptothecin resistance. The format is cell-based. On the procedure: as §3, with “dye assay. […] Compounds 16 and 24 were tested in this” for “dye”
In series [8] the test system is Human umbilical vein endothelial cells (HUVECs). Nature of the series: Cellular network (tube) formation inhibition assay. Format: cell-based. On the procedure:
(i) Cellular Network Formation Inhibition Assay
Each well of a 96-well plate was coated with an extracellular matrix containing collagen for 1 hr to allow the gel to solidify. Human umbilical vein endothelial cells (HUVECs) suspension was prepared at a concentration of 1×10^5 cells/mL in M199 medium supplemented with endothelial cell growth supplements with 20% FBS. Then, 100 μl of the cell suspension was added to each gel-coated well of the plate. Cells were incubated with or without a test compound for 18 hrs at 37° C. Without the test compound, a cellular network structure was fully developed after 12-18 hrs of incubation. The number of tubes formed was counted using light microscopy at 200× magnification.

Another series has as its system VEGF165. Nature of the series: VEGF production inhibition assay (ELISA). Format: cell-based. To be noted: Homo sapiens, medium of the HUVEC network assay. As to the method:
(ii) VEGF Production Inhibition Assay
The medium of assay (i) above was collected. VEGF165 levels were measure by ELISA. In brief, a monoclonal antibody specific for VEGF was pre-coated onto a microplate. A control cell culture medium and the medium of assay (i) were added into the wells and any VEGF present was bound to the wells by the immobilized antibody. After washing away any unbound substances, an enzyme-linked polyclonal antibody specific for VEGF was added to the wells. Following a wash to remove any unbound antibody-enzyme reagent, a substrate solution was added to the wells and color developed in proportion to the amount of VEGF bound in the initial step. The color development was stopped and the intensity of the color was measured.
In general terms: An ELISA detects its analyte on a solid surface through an enzyme-linked reagent.

For series [9], the system named is CD31-positive cells in tumor tissue (microvessel density). Description: Anti-vascular activity, CD31 immunofluorescence staining in tumor tissues. Format: in vivo. Details: dose or concentration left out as unconfirmed. Particulars: tumor tissue from mice. On the procedure:
Anti-vascular activities of the aryl substituted sulfonamide compounds were evaluated by immunofluorescence staining in tumor tissues.
Rat anti-mouse CD31 antibodies were purchased from BD Biosciences. Tumor tissue samples were harvested from mice in both the control and test compound-treated groups. Frozen sections were fixed with acetone and chloroform. To block nonspecific proteins, each sample was incubated in 4.5% fish gelatin (BB International Co.) for 20 min. Expression of CD31 was detected in blood vessels using rat anti-mouse CD31 as the primary antibody and TexasRed (Jackson) labeled-goat anti-rat IgG antibody as the secondary antibody. The mean microvessel density (MVD) was determined by first counting and then averaging the number of CD31-positive cells in five random high power microscopic fields from different tumor samples.

For series [10], the system named is drug-resistant cell lines (KB-VIN10, KB-TAX50, KB-7D, KB-CPT100, KB-CPT300, KB-L30). Nature of the series: Growth inhibition on the drug-resistant KB cell lines (summary over the lines). Format: cell-based. To be noted: Homo sapiens, summary of Table 3, read-out: IC50 values on the drug-resistant cell lines (range over lines). On the procedure:
as §3, with “dye assay. […] Compounds 16 and 24 were tested in this” for “dye”

Where [11] appears, read: KB cells, 72 h, methylene blue dye assay, read-out: Cell type (IC50 ± SD, nM) KB (oral).
The mark [12] stands for this setting: KB-VIN10 (P-gp170/MDR overexpression), 72 h, methylene blue, read-out: IC50, growth inhibition of KB-VIN10 cells.
The mark [13] stands for this setting: KB cells, bands, read-out: IC50, inhibiting proliferation of KB cells (band).

Each structure is given as a SMILES string. Read-outs that look alike come from different tables or passages of the source.

Experimental findings from patent publication US8119683B2, “Aryl substituted sulfonamide compounds and their use as anticancer agents” (Taipei Medical University, priority 2009, dated 2012) are described below.

In the case of `COc1ccc(S(=O)(=O)Nc2cccnc2Nc2ccc(O)cc2)cc1` [ABT-751, reference compound], the IC50 in [1] (setting [11]) turned out to be 251 ± 65 nM; in series [2] it was 218 ± 4 nM; in series [3], 166 ± 8 nM; with KB-VIN10 cells (setting [12]) it was 385 nM.

Broadly, the melting point is the temperature of the solid-liquid transition. For the compound `COc1ccc(S(=O)(=O)N2CCc3cccc(-c4ccc(C#N)cc4)c32)cc1` [Compound 17, 4-[1-(4-methoxy-benzenesulfonyl)-2,3-dihydro-1H-indol-7-yl]-benzonitrile], the melting point was in the range of 157.2 to 158.9 °C. In [1] (setting [11]), the IC50 was 31.1 ± 5.4 nM. Further, in series [1] (setting [13]), the IC50 is 1 to 99 nM. For the same compound, in series [2], the IC50 stood at 29.5 ± 14.8 nM. Moreover, the IC50 in [3] amounted to 17.2 ± 8.6 nM.

Broadly, the inhibition is the relative decrease from the control value, in per cent. Consider `COc1ccc(S(=O)(=O)N2CCc3cccc(-c4ccncc4)c32)cc1` [Compound 24, 1-(4-methoxy-benzenesulfonyl)-7-pyridin-4-yl-2,3-dihydro-1H-indole], for which the melting point was in the range of 195.9 to 196.8 °C. Besides, the IC50 in series [1] (KB (Parental), Table 3, read-out: Growth Inhibition (IC50)) was 96 ± 14.1 nM. In [1] (setting [11]), the IC50 is 96 ± 14.1 nM. Further, the IC50 in [1] (setting [13]) was 1 to 99 nM. Also, the IC50 in series [2] worked out at 101 ± 8 nM. Also, the IC50 in series [3] is 69.5 ± 7.6 nM. The IC50 in series [4] came out at 150 ± 8.5 nM. Besides, the IC50 in [5] is 132 ± 13.7 nM. For the same compound, in series [6], the IC50 turned out to be 201 ± 13.9 nM. Besides, the IC50 in series [7] was determined as 510 ± 22.2 nM. The IC50 in the series on KB-VIN10 cells (setting [12]) worked out at 106 nM. The IC50 in the series with KB-VIN10 cells (KB-VIN10, Vincristine resistance, read-out: Growth Inhibition (IC50)) came out at 106 ± 18 nM. The same compound registered an IC50 with KB-TAX50 cells of 188 ± 25.3 nM. Besides, in the series on KB-7D cells, the IC50 amounted to 257 ± 26.6 nM. The same compound displayed an IC50 with KB-L30 cells of 237 ± 26.6 nM. For the same compound, the IC50 with KB-CPT100 cells was determined as 95 ± 12.1 nM. In the series on KB-CPT300 cells, the IC50 was 93 ± 15.7 nM. Moreover, in series [8] (Homo sapiens, HUVEC, 18 hrs, unit inferred), the IC50 stood at 500 nM. Moreover, in series [8] (at 1.5 (unit not given)), the “tube formation inhibition” value is listed as “completely inhibited tube formation”. The inhibition at 0.5 µM in the series on VEGF165 was more than 50%. In addition, in [9], the “decrease of vascular area compared to the blank control” value is “five-fold”. The IC50 in series [10] is 90 to 250 nM.

Take `COc1ccc(S(=O)(=O)N2CCc3cccc(-c4ccc([N+](=O)[O-])cc4)c32)cc1` [Compound 37, 1-(4-methoxy-benzenesulfonyl)-7-(4-nitro-phenyl)-2,3-dihydro-1H-indole]: the melting point fell in the range of 177.1 to 178.4 °C. In series [1] (setting [13]), the IC50 fell in the range of 1 to 99 nM.

As to `COc1ccc(S(=O)(=O)N2CCc3cccc(-c4ccc(C=O)cc4)c32)cc1` [Compound 38, 4-[1-(4-methoxy-benzenesulfonyl)-2,3-dihydro-1H-indol-7-yl]-benzaldehyde], the melting point is 152 to 153 °C. Besides, in series [1] (setting [13]), the IC50 fell in the range of 1 to 99 nM.

`COc1ccc(S(=O)(=O)N2CCc3cccc(-c4ccc(CN(C)C)cc4)c32)cc1` [Compound 39, {4-[1-(4-methoxy-benzenesulfonyl)-2,3-dihydro-1H-indol-7-yl]-benzyl}-dimethyl-amine]: the melting point was 165 to 166 °C. For the same compound, in [1] (KB cells, bound stated, read-out: IC50, inhibiting proliferation of KB cells (bound)), the IC50 was not below 4000 nM.

As for `COc1ccc(S(=O)(=O)N2CCc3cccc(-c4ccc(C(=O)O)cc4)c32)cc1` [Compound 40, 4-[1-(4-methoxy-benzenesulfonyl)-2,3-dihydro-1H-indol-7-yl]-benzoic acid], the melting point lay within 130.3 to 132.1 °C. In addition, the IC50 in series [1] (setting [13]) was in the range of 100 to 700 nM.
